Publication PMC3509222 (Molecular Microbiology, 2012)

Target: T1, full-length SgmT (His6-SgmT) (Myxococcus xanthus, UniProt Q1D3G7)
T1 sequence (Q1D3G7 1-836): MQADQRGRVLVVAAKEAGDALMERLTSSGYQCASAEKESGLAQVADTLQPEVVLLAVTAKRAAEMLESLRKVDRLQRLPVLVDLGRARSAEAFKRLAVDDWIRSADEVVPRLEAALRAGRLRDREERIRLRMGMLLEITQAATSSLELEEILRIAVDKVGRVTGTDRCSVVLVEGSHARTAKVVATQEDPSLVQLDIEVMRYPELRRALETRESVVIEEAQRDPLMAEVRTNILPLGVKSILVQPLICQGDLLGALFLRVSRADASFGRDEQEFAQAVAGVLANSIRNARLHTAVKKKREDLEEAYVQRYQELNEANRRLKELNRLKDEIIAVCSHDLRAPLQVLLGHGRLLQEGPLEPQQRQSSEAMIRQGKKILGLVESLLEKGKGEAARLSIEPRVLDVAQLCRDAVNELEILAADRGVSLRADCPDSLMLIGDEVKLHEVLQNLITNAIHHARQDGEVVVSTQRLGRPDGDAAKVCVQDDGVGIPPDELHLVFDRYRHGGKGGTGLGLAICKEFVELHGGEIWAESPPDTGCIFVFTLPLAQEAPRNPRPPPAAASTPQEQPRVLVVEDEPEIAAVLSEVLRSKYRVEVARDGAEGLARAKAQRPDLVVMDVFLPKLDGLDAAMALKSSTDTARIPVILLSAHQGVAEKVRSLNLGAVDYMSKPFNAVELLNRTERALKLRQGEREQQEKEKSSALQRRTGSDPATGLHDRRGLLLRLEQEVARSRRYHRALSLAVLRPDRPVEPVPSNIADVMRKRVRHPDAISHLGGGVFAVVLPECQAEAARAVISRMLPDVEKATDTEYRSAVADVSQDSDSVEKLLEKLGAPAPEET
Conditions: labelled compound; 1.0 mM ATP, 10 mM MgCl2, Tris pH 8.0, 30°C, 30 min

Nc1ncnc2c1ncn2[C@@H]1O[C@H](COP(=O)(O)OP(=O)(O)OP(=O)(O)O)[C@@H](O)[C@H]1O [[γ-^32P]-ATP]
autophosphorylation, SDS-PAGE and phosphorimaging: Autophosphorylation of full-length SgmT and phosphotransfer to DigR
